Reference: patent US20260207581A1, “Small Molecule Inhibitor for Inflammatory Pain Inhibition” (University of Rochester, priority 2023, published 2026)
“Also recorded” adds a separate entry of the source.

How the values were obtained:
[1] = tested on: TNFα-induced cell infiltration; experiment: Subcutaneous implantation of coated collagen sponges; type: in vivo; settings: sponges coated with TNFα plus PFI-2
Description: In vivo analysis was examined by subcutaneous implantation of collagen sponges coated with PBS, TNF-α, or TNF-α and PFI-2.

TMJ tissues = experiment: CFA injection rat model of inflammatory TMD: swelling, uCT and histology of TMJ tissues; type: in vivo
SETD7 [2] = biological target: T1, SETD7 (Rattus norvegicus, UniProt A0A8I6A0F7); experiment: SETD7 and YAP localization and protein methylation in TNF-α treated RSSCs; type: cell-based; settings: RSSCs treated with TNF-α
T1 construct: endogenous in cells; host or cells: primary rat synovial mesenchymal stem cells (RSSCs)
Experimental: As a first step, the expression and localization of SETD7 and YAP are examined in RCs and RSSCs at the mRNA and protein level under physiological and inflammatory conditions. RCs and RSSCs are cultured with or without TNF-α for 6, 12, and 24 hours. Proteins and mRNAs from cultured cells are isolated for RT-PCR and Western Blot analyses. The localization of SETD7 and YAP in relationship toward each other is visualized by immunofluorescence, and the methylation levels and distribution of YAP in nuclei and cytoplasm are determined by Western blotting using anti-SETD7 and anti-YAP antibodies (Abcam). To determine whether YAP and SETD7 interact, co-immunoprecipitation assays is performed, and the degree of interaction between SETD7 and YAP is compared between TNF-α-treated cells and control cells (Ito et al. 2011).
Rat synovial mesenchymal stem cells (RSSCs) were cultured and examined for SETD7 nuclear localization.

SETD7 [3] = biological target: T2, SETD7 (Homo sapiens, UniProt Q8WTS6); settings: Francis et al. 2018; cited from earlier work
T2 sequence (Q8WTS6 1-366): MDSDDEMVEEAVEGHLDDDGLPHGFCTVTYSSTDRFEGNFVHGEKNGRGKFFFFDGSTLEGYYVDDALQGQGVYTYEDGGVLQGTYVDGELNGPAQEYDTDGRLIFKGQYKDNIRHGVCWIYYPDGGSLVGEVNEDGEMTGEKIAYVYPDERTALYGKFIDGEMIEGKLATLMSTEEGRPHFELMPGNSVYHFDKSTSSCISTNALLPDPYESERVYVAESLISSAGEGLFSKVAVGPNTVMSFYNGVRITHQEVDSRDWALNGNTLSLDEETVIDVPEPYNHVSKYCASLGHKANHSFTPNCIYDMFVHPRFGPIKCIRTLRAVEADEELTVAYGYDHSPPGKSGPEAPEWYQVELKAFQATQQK

inflammatory TMD pain = experiment: Place escape/avoidance paradigm (PEAP) pain behavior in inflammatory TMD model; type: in vivo, rat; settings: for time spent in the dark half of the PEAP chamber: CFA plus PFI-2 injection
Experimental: Effect of PFI-2 Mediation on Inflammatory Conditions and Pain: Tmj pain is assessed as meal duration and via Place Escape Avoidance Paradigm (PEAP)-based measures (FIG. 1, Vertebrate Justification section). Testing is performed in both male and female rats as sex differences have been observed in humans and animals. Female animals are tested for the estrous cycle and the results are reported for the di-estrus, estrus, and pro-estrus phases (Kramer, Bellinger, 2009).
Peap Testing: the Chamber Used for the Place Escape Avoidance Paradigm (PEAP) testing is a 30 cm×30 cm acrylic box in which half the box is covered in black cloth. Each individual rat is placed into the chamber; due to their nocturnal circadian rhythm, rodents prefer the dark side of the chamber. Rats on the dark side of the chamber receive a stimulus at the injected side, whereas rats with their head on the clear side of the chamber are stimulated on the contralateral non-injected side with a 60 g filament every 15 seconds. The stimulus is administered below the eye and caudal to the whisker pad. The time spent on the dark side of the box is recorded in 5 min bins, testing is performed for a total of 30 min on the test day and thereafter on a one day a week basis for 8 weeks as previously described (Stinson et al. 2017; 2019).
Injection of PFI-2-Col I, PFI-2-decm Hydrogel and PFI-2-exosome solution into the TMJ: Four groups (SV, SP, CV, and CP) receive injections of the saline plus carrier, saline plus PFI-2 carrier, CFA plus carrier, or CFA plus PFI-2 carrier, respectively. The TMJ injection procedure is described in FIG. 1. Forty-eight hours after the injection of saline or CFA solution, PFI-2 (10 μM) in a carrier, or the carrier alone, is injected every two days, or once within 10 days. The injection times and effect duration of PFI-2 on both inflammatory degeneration and pain are optimized.
PEAP behavior of animals was investigated after administration of saline, CFA, or CFA and a PFI-2 carried by either a Col I hydrogel or a dECM hydrogel.

IL-1β expression = experiment: Cultured condyle organs treated with IL-6, IL-1β immunostaining; type: cell-based; settings: IL-6 plus PFI-2
[4] = tested on: SETD1, IL-6 and MMP2 expression; experiment: qRT-PCR and Western blotting of selected inflammatory genes under TNFα; type: cell-based, rat
RSSCs = experiment: BrdU labeling and β-gal senescence staining of TNF-α treated RSSCs; type: cell-based, rat; settings: RSSCs treated with TNFα
[5] = tested on: inflammatory genes, matrix proteins, adhesion molecules and neuropeptides in TMJ tissues; experiment: qRT-PCR analysis of gene expression in TMJ tissues of the CFA model; type: in vivo, rat
Experimental: To see if this reduction in inflammation and its associated damage could provide therapeutic benefit, the ability of PFI-2 to reduce inflammatory pain was examined. Animals were injected with saline or CFA and meal duration, a proxy for pain, was examined over a span of 21 days post-injection. […] Calcitonin gene-related peptide (CGRP) localization and expression in the synovial membrane were examined by immunostaining, where it was observed that CGRP was localization in synovial cells and neurons was increased in animals treated with CFA (FIG. 4C and FIG. 4D).
Expression of Osteogenic, Chondrogenic and Inflammatory Genes in a TMD model: To generate benchmark data for functional and mechanistic studies TMJ discs, synovia, and condyles are dissected and mRNA and protein expression levels of bone marker genes measured, including collagen type I (Col I), alkaline phosphatase (Alp), Runx2, Osterix (Osx), osteocalcin (Ocn), and bone sialoprotein (Ibsp), as well as cartilage marker genes such as collagen II, Sox 9, Col X, and biglycans. To characterize the effect of the YAP upregulator PFI-2 on inflammation and osteoclast formation, the expression of inflammatory cytokines (IL-1b, IL-6, TNF-α), NF-κB, MMPs (MMP2, MMP9 and MMP13), adhesion molecules (CDH11, ICAM, Integrin β1), and osteoclastogenesis-related genes (Rank, Rankl, Opg, Trap5b, and NFATc1) is detected using quantitative RT-PCR and Western blotting as described by Walker et al. (2010). Localization of these genes in the inflamed TMJ is further specified using immunofluorescence.
Inflammatory Changes in the Expression of Neuropeptides CGRP, NPY and SP1 in vivo and in vitro: For in vivo studies, rat TMJ discs, synovial membrane, condyle, trigeminal ganglia and trigeminal nucleus caudalis are collected bilaterally from saline-or CFA-treated rats for RNA and protein isolation, and histological analysis. The expression of CGRP, NPY, TAC1, and Galanin (GAL) at gene and protein levels are measured using qRT-PCR and Western blotting. For histology, tissues are fixed in 4% paraformaldehyde and prepared for paraffin sections as described previously (Lu et al, 2016a, b). Cells and neurons positive for CGRP, NPY, SP1 (an isoform of TAC1 protein) and Gal are visualized via immunofluorescence or immunohistochemistry using antibodies against CGRP, GAL, NYP, and TAC1 (Abcam). Expression levels of these genes and the numbers of immunoreactive cells are compared between different treatment groups.

YAP1 = experiment: YAP / Sox9 immunolocalization in TMJ discs and condylar growth plate of the CFA model; type: in vivo, rat
Experimental: Because of this initial success, it was further examined if PFI-2 treatment could rescue inhibition of chondrocyte maturation and return YAP expression in the condylar growth plate of animals suffering from inflammation. To test the ability to repair damage, animals were injected with saline or CFA. After inflammation, a subset of the CFA-treated animals were also injected with PFI-2. Tissue samples from each were stained with H&E, safranin O, and PCNA, YAP was detected by immunostaining, and cartilage differentiation was determined by immunostaining for Sox 9 (FIG. 3A-FIG. 3O). The samples were also examined by RT-PCR for expression levels of collagen 2, collagen 10, Mmp 13 metalloproteinase, Runx2 bone transcription factor, and Sox 9 (FIG. 3P).
Here, the role of the Hippo pathway effectors YAP and TAZ is elucidated in an inflammatory TMD models. YAP and TAZ interact with DNA-binding factors of the TEAD family in the nucleus to regulate gene expression. […] First, the expression and subcellular localization of YAP is characterized under physiological and inflammatory conditions in TMJ tissues, RSSCs and RCs. The expression pattern of the YAP protein in TMJ tissues are elucidated by immunohistochemistry using anti-YAP antibody and the expression levels of YAP mRNA and protein is determined using qRT-PCR and Western blotting. […]

[6] = PFI-2 injected following CFA induction of inflammatory conditions

T1 sequence (A0A8I6A0F7 1-367): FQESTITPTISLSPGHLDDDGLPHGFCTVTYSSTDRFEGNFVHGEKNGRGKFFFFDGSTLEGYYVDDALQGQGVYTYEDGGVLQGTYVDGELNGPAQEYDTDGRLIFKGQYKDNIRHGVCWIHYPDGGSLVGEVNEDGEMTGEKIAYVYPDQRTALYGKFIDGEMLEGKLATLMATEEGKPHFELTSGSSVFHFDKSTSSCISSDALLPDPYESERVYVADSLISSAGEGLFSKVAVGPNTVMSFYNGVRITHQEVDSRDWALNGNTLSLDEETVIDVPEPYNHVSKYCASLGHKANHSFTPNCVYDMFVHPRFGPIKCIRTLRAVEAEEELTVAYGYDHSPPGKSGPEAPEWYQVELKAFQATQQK

## O=C([C@@H](Cc1cccc(C(F)(F)F)c1)NS(=O)(=O)c1cc(F)c2c(c1)CCNC2)N1CCCC1 [PFI-2]
[1]
  cell infiltration into collagen sponges: reversed inflammatory cell infiltration in tissue implants; also recorded: reversed this effect
  extracellular matrix remodeling in collagen sponges: promoted extracellular matrix remodeling; also recorded: promoted ECM remodeling
TMJ tissues; [6]
  inflammation-induced retardation of chondrocyte differentiation / condylar growth plate structure: able to reverse it; also recorded: restored condyle growth plate structure and function; also recorded: reversed
TMJ tissues; inflammatory conditions, three PFI-2 delivery modalities
  bone volume, mechanical properties and thickness of functional condyle layers: restores outcomes to near-physiological values
TMJ tissues; rats, 48 hours after injection, CFA-induced (10% increase with CFA)
  regional swelling / distance between the two ear tragi: no swelling was observed
TMJ tissues; rats, CFA model
  collagen fibers in the TMJ disc (Pico Sirius red staining): lightened; also recorded: conversion to light red, thinner fibers
  structure and function of fibrocartilage in the TMJ (H&E): rescued the structure and function of fibrocartilage
  thickness of the fibrous and proliferative cell layers / hypertrophic zones (H&E): rescued; also recorded: reduced
TMJ tissues; rats, CFA model, paraffin-embedded TMJ tissues
  TMJ disc thickening and fusion with the condyle (H&E): rescued; also recorded: detachment of the TMJ disc and condyle
TMJ tissues; rats, CFA plus PFI-2 injection
  condylar bone volume and joint space between temporal fossa and condyle (uCT): rescued
TMJ tissues; rats, CFA-induced inflammation
  fibrous adhesion of TMJ disc and condylar surface (Masson trichrome): prevented the attachment; also recorded: released fibrous adhesion; also recorded: de-attached the TMJ disc from the condyle
SETD7 [2]
  SETD7 nuclear localization: blocked the effect of TNF-α on SETD7 nuclear localization
  global protein methylation levels in whole cell lysates (Western blot): reduces methylation; also recorded: inhibited this effect
SETD7 [3]
  inflammation and tissue regeneration in periodontal diseases: suppresses inflammation and promotes tissue regeneration
Inflammatory TMD pain; collagen gel (Col I hydrogel) as carrier
  time spent in the dark half of the PEAP chamber: significantly rescued; also recorded: significantly increased
Inflammatory TMD pain; dECM hydrogel as carrier, compared with collagen carrier
  time spent in the dark half of the PEAP chamber: far more significant; also recorded: further improved
Inflammatory TMD pain; inflammatory TMD model
  inflammatory pain: greatly reduced pain; also recorded: reduction in inflammatory pain; also recorded: reduced inflammatory pain
Inflammatory TMD pain; mice subjected to inflammatory temporo-mandibular joint pain
  time on the dark side of PEAP chambers: dramatically reduced time
IL-1β expression
  IL-1β expression (immunostaining): inhibited the expression of IL-18; also recorded: inhibited IL-1β expression
  swelling of the articular surface (thickness of fibrous and proliferative cell zones): reversed the swelling of the articular surface
[4]
  TNFα-induced gene dysregulation (Western blotting): confirmed
[4]; PFI-2 at 1, 10, and 50 μM
  TNFα-induced upregulation of SETD1, IL-6 and MMP2 expression (qRT-PCR): inhibited by treatment with PFI-2 in a dose-dependent manner; also recorded: inhibited TNFα-induced upregulation in a dose-dependent manner
RSSCs
  BrdU positive proliferating cells: restored the proliferative potential of inflammation-compromised cells; also recorded: restored cellular proliferation
  β-gal+ cell senescence: inhibited TNFα-induced cell senescence
[5]; CFA-PFI-treated (CP) vs CFA-treated (CV)
  expression of CGRP, NPY and TAC in TMJ tissues (qRT-PCR): reduced to near-normal levels
[5]; CFA-PFI-treated (CP) vs CFA-treated (CV), listed as PFI
  expression of CGRP, NPY and TAC in TMJ tissues (qRT-PCR): almost reduced to normal levels
[5]; rats, CFA model
  inflammatory gene / cytokine expression in TMD tissues (qRT-PCR): inhibited the expression of inflammatory cytokines; also recorded: downregulated inflammatory gene expression
[5]; rats, CFA-PFI-treated (CP) vs CFA-treated (CV)
  matrix protein and adhesion molecule expression in TMJ tissues (qRT-PCR): reversed the upregulation
YAP1; [6]
  YAP expression and localization in the condylar growth plate: rebalance YAP1 expression; also recorded: re-localized YAP1 and SOX9 proteins; also recorded: returned YAP expression
YAP1; rats, CFA model
  YAP1 immunolocalization in TMJ discs: translocated YAP into nuclei
